# Results from the supplement of paper PMC4862054.
# Assays:
# Assay in all cases: normalised viability (% of control), CellTiter-Blue; higher = more viable cells (about 100 = DMSO control)
# [1] = tested on: CAL-85-1; conditions: 3000 nM; incubation time: 72 h
# Description: (§1)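 DSRT, CellTiter-Blue viability, 72 h incubation. Signal is normalised to DMSO and benzethonium chloride controls. Value is the normalised response at dose 8.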
# [2] = tested on: HDQ-P1; conditions: 3000 nM; incubation time: 72 h
# Description: as §1
# [3] = tested on: DU-4475; conditions: 3000 nM; incubation time: 72 h
# Description: as §1
# [4] = tested on: CAL-51; conditions: 3000 nM; incubation time: 72 h
# Description: as §1
# [5] = tested on: MDA-MB-453; conditions: 3000 nM; incubation time: 72 h
# Description: as §1
# [6] = tested on: CAL-148; conditions: 3000 nM; incubation time: 72 h
# Description: as §1
# [7] = tested on: CAL-85-1; conditions: 300 nM; incubation time: 72 h
# Description: (§2)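 DSRT, CellTiter-Blue viability, 72 h incubation. Signal is normalised to DMSO and benzethonium chloride controls. Value is the normalised response at dose 6.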
# [8] = tested on: MDA-MB-453; conditions: 300 nM; incubation time: 72 h
# Description: as §2
# [9] = tested on: CAL-148; conditions: 300 nM; incubation time: 72 h
# Description: as §2
# [10] = tested on: MDA-MB-468; conditions: incubation time: 72 h
# How it was run: (§3)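 Each entry is normalised viability at a single listed concentration within a series. It comes from breast cancer cell lines incubated 72 h with compound in 384-well plates, then measured with CellTiter-Blue fluorescence at 560/590 nm. Every plate was normalised between vehicle (100) and a positive kill control (0).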
# [11] = tested on: BT-549; conditions: incubation time: 72 h
# How it was run: as §3
# [12] = tested on: HCC1599; conditions: incubation time: 72 h
# How it was run: as §3
# [13] = tested on: Hs578T; conditions: incubation time: 72 h
# How it was run: as §3
# [14] = tested on: CAL-85-1; conditions: incubation time: 72 h
# How it was run: as §3
# [15] = tested on: MDA-MB-436; conditions: incubation time: 72 h
# How it was run: as §3
# [16] = tested on: SK-BR-3; conditions: incubation time: 72 h
# How it was run: as §3
# [17] = tested on: HDQ-P1; conditions: incubation time: 72 h
# How it was run: as §3
# [18] = tested on: CAL-120; conditions: incubation time: 72 h
# How it was run: as §3
# [19] = tested on: MFM-223; conditions: incubation time: 72 h
# How it was run: as §3
# [20] = tested on: DU-4475; conditions: incubation time: 72 h
# How it was run: as §3
# [21] = tested on: HCC1143; conditions: incubation time: 72 h
# How it was run: as §3
# [22] = tested on: BT-474; conditions: incubation time: 72 h
# How it was run: as §3
# [23] = tested on: CAL-51; conditions: incubation time: 72 h
# How it was run: as §3
# [24] = tested on: MDA-MB-453; conditions: incubation time: 72 h
# How it was run: as §3
# [25] = tested on: CAL-148; conditions: incubation time: 72 h
# How it was run: as §3
# [26] = tested on: MDA-MB-231; conditions: incubation time: 72 h
# How it was run: as §3
smiles,measurement,setting,value
Nc1nc(F)nc2c1ncn2[C@@H]1O[C@H](CO)[C@@H](O)[C@@H]1O [Fludarabine],normalised viability,[1],96.7%
same,normalised viability,[2],108%
same,normalised viability,[3],104%
same,normalised viability,[4],104%
same,normalised viability,[5],111%
same,normalised viability,[6],84.5%
same,normalised viability,[7],90.4%
same,normalised viability,[8],100%
same,normalised viability,[9],72.2%
same,normalised viability,[10]; 10 nM,98.8%
same,normalised viability,[10]; 1000 nM,112%
same,normalised viability,[10]; 10000 nM,98.9%
same,normalised viability,[11]; 10 nM,85.1%
same,normalised viability,[11]; 1000 nM,97.1%
same,normalised viability,[11]; 10000 nM,81.5%
same,normalised viability,[12]; 10 nM,102%
same,normalised viability,[12]; 1000 nM,82.6%
same,normalised viability,[12]; 10000 nM,89.5%
same,normalised viability,[13]; 10 nM,112%
same,normalised viability,[13]; 1000 nM,99.2%
same,normalised viability,[13]; 10000 nM,87.2%
same,normalised viability,[14]; 3 nM,88%
same,normalised viability,[14]; 30 nM,87.2%
same,normalised viability,[14]; 100 nM,92.8%
same,normalised viability,[15]; 10 nM,89%
same,normalised viability,[15]; 1000 nM,81.2%
same,normalised viability,[15]; 10000 nM,78.4%
same,normalised viability,[16]; 10 nM,98.6%
same,normalised viability,[16]; 1000 nM,93.3%
same,normalised viability,[16]; 10000 nM,77.8%
same,normalised viability,[17]; 3 nM,107%
same,normalised viability,[17]; 30 nM,91%
same,normalised viability,[17]; 100 nM,96.4%
same,normalised viability,[18]; 10 nM,82.3%
same,normalised viability,[18]; 1000 nM,78.5%
same,normalised viability,[18]; 10000 nM,81.5%
same,normalised viability,[19]; 10 nM,101%
same,normalised viability,[19]; 1000 nM,106%
same,normalised viability,[19]; 10000 nM,100%
same,normalised viability,[20]; 3 nM,91.1%
same,normalised viability,[20]; 30 nM,93.2%
same,normalised viability,[20]; 100 nM,96.7%
same,normalised viability,[21]; 10 nM,75.8%
same,normalised viability,[21]; 1000 nM,80%
same,normalised viability,[21]; 10000 nM,55.9%
same,normalised viability,[22]; 10 nM,94%
same,normalised viability,[22]; 1000 nM,97.4%
same,normalised viability,[22]; 10000 nM,103%
same,normalised viability,[23]; 3 nM,100%
same,normalised viability,[23]; 30 nM,101%
same,normalised viability,[23]; 100 nM,91.9%
same,normalised viability,[24]; 3 nM,113%
same,normalised viability,[24]; 30 nM,112%
same,normalised viability,[24]; 100 nM,103%
same,normalised viability,[25]; 3 nM,71%
same,normalised viability,[25]; 30 nM,82.6%
same,normalised viability,[25]; 100 nM,87.7%
same,normalised viability,[26]; 10 nM,90.9%
same,normalised viability,[26]; 1000 nM,89.9%
same,normalised viability,[26]; 10000 nM,81.1%
